Test results as given in article PMC12502592, “Therapeutic potential of flavonols in the treatment of JCPyV” (Microbiology Spectrum, 2025).

How the values were obtained:
[1] = tested on: JCPyV; set-up: method as in PMID 26600871, PMID 21402853; conditions: relative to cidofovir; cited from earlier work
[2] = tested on: SVG-A cells; test: Viral ToxGlo toxicity assay in SVG-A cells; format: cell-based, human
Description: (§1) SVG-A cells were plated at 5,000 cells per well, and NHAs were plated at 10,000 per well in a Corning 96-well tissue culture-treated plate. The following day, the cells were treated with a twofold dilution series of either quercetin, myricetin, or fisetin, ranging from 20 to 0.15625 µM, in phenol-free media. SVG-A cells were incubated with drug for 72 h in the incubator at 37°C with 5% CO2. NHA cells were incubated with drug for 120 h at 37°C with 5% CO2 to match the exposure times for infection. After incubation, a luciferase-based Viral ToxGlo Assay (Promega) was added to each well according to the manufacturer’s protocol. Viral ToxGlo measures the amount of ATP activity present through a luminescent signal. The cells were incubated with Viral ToxGlo lytic reagent for 10 min at 37°C with 5% CO2. Lysed cell suspension was then transferred to an opaque plate, and luciferase activity was read on the Glomax Multi-detection System (Promega, 0.5 s integration time) and normalized to a vehicle control.

[3] = tested on: NHA cells; test: Viral ToxGlo toxicity assay in NHA cells; format: cell-based, human
Description: as §1

[4] = tested on: JCPyV; test: JCPyV infection assay in SVG-A cells (VP1 indirect immunofluorescence); format: cell-based; conditions: JC polyomavirus, 2 h pretreatment, MOI 10, drug maintained 72 h, normalized to DMSO
Description: (§2) SVG-A cells were plated at 5,000 cells per well, and NHAs were plated at 10,000 per well. The following day, the cells were treated with the above-described dose curve of either quercetin, fisetin, or myricetin, ranging from 10 to 0.15625 µM. A DMSO (vehicle) control that was volume matched to the highest volume of each flavonol was included. The plates were pretreated with drug for 2 h at 37°C with 5% CO2. Next, the cells were incubated in 1× MEM with purified JCPyV (MOI of 10) in the continued presence of either quercetin, myricetin, fisetin, or a DMSO vehicle control matched to the highest concentration of each flavonol. Plates were incubated for 2 h at 37°C with 5% CO2 and rocked every 15 min to ensure homogenous distribution of virus in each well. Virus-containing media were then aspirated and replaced with either quercetin, myricetin, fisetin, or a volume-matched DMSO control in complete media. SVG-A cells were incubated for 72 h in the incubator at 37°C with 5% CO2. Astrocytes were incubated for 120 h at 37°C with 5% CO2. Plates were fixed in 100% ice-cold methanol and quantified using indirect immunofluorescence staining for the late viral protein VP1.
(§3) To quantify the number of infected cells, SVG-A and NHA cells were fixed with ice-cold 100% methanol at −20°C for at least 15 min to permeabilize cells. The cells were rehydrated with 1× phosphate-buffered saline (PBS) for 15 min and rocked at room temperature. […] The cells were imaged on a Ti2-E Inverted Fluorescence Microscope (Nikon) using the 20× objective. For each plate, a random subset of 10 fields was chosen to image per well, and three wells were analyzed per condition. Images were analyzed using Elements High Content Imaging software (Nikon) to count total cells versus VP1+ cells.
(§4) A linear regression between successive points was used to calculate the half maximal inhibitory values (IC50) from the dose curves of each drug. […] Significance was calculated using Student’s two-tailed t-test in GraphPad Prism. […]

[5] = tested on: JCPyV; test: JCPyV infection assay in NHA cells (VP1 indirect immunofluorescence); format: cell-based; conditions: JC polyomavirus, 2 h pretreatment, MOI 10, drug maintained 120 h, normalized to DMSO
Description: as §2, §3, §4

[6] = tested on: JCPyV; test: Infection time course in SVG-A cells; format: cell-based, JC polyomavirus; conditions: 10 µM, added at -2, 0, 2 or 24 h relative to infection, VP1+ at 72 h post-infection
Description: (§5) SVG-A cells were plated at 5,000 cells per well, and NHAs were plated at 10,000 per well in a Corning 96-well tissue culture-treated plate. The following day, the cells were treated at the following four time points: 2 h before infection (−2 h; pretreatment), 0 h (co-treatment at the time of infection), 2 hs after infection (post treatment), or 24 h after infection (post-treatment). At the 2-h pretreatment time point, quercetin, myricetin, fisetin, or a volume-matched DMSO control was added in complete media. For all other time points, complete media were administered as a mock treatment. The plates were incubated for 2 h at 37°C and 5% CO2. At the 0-h time point, purified JCPyV (MOI of 10) in unsupplemented media was added to each of the time points, either alone or in the presence of drug, as appropriate for each treatment condition. In the −2 h and 0 h treated wells, quercetin, myricetin, fisetin, or a volume-matched DMSO control was added as co-treatment. All plates were infected with purified JCPyV at the same time, for 2 h at 37°C and 5% CO2. At the 2-h time point, the virus was aspirated and flavonols in complete media were added to the −2, 0, and 2 h time points. Complete media without drug or vehicle control was administered to the 24-h time point. Twenty-four hours after infection, flavonols were added to the 24-h time point, in complete media. SVG-A cells were incubated at 37°C and 5% CO2 for 72 h after infection, and NHA cells were incubated at 37°C and 5% CO2 for 120 h after infection. Plates were then stained and infection was quantified via indirect immunofluorescence.
as §3, with “cells.” for “cells. The cells were rehydrated with 1× phosphate-buffered saline (PBS) for 15 min and rocked at room temperature.”

[7] = tested on: JCPyV; test: Infection time course in NHA cells; format: cell-based, JC polyomavirus; conditions: added at -2, 0, 2 or 24 h relative to infection, VP1+ at 120 h post-infection
Description: as §5
as §3, with “cells.” for “cells. The cells were rehydrated with 1× phosphate-buffered saline (PBS) for 15 min and rocked at room temperature.”

[8] = tested on: JCPyV; test: Viral spread assay in SVG-A cells; format: cell-based, JC polyomavirus; conditions: 10 µM added 24 h post-infection, VP1+ at 3, 6 and 9 days post-infection, vs DMSO
Description: (§6) For the viral spread assay, the cells were plated at a density of 5,000 cells per well for SVG-A in complete MEM, or 10,000 cells per well for NHA in complete AM, and incubated overnight at 37°C with 5% CO2. The next day, the cells were infected with purified JCPyV (MOI of 10) for 2 h to establish an infection without the presence of drugs. After infection, JCPyV media were aspirated and plates were incubated with complete media as required for each cell type. One day post-infection, the cells were incubated with the highest nontoxic dose (for SVG-A: 10 µM quercetin, 10 µM myricetin, 10 µM fisetin; for NHA: 5 µM quercetin, 10 µM myricetin, 5 µM fisetin) or a volume-matched DMSO control. Plates were incubated at 37°C with 5% CO2 and infection was measured by indirect immunofluorescence quantification at 3, 6, and 9 days post-infection in SVG-As or 5, 10, and 15 days post-infection for NHAs. At every time point, the cells were either fixed in ice-cold methanol or were supplemented with an additional 50 µL of cell media that consisted of the matched concentration of quercetin, fisetin, myricetin, or DMSO vehicle control. Cell counts were obtained by counting the total number of cells in 10 random fields per well (3 wells total per replicate) on the Ti2-E Inverted Fluorescent Microscope (Nikon).
as §3, with “rocked at room temperature. Subsequent permeabilization was conducted with incubation in 1% Triton-X (USB) for 10 min with rocking” for “rocked”

[9] = tested on: JCPyV; test: Viral spread assay in NHA cells; format: cell-based, JC polyomavirus; conditions: VP1+ at 5, 10 and 15 days post-infection, vs DMSO
Description: as §6
as §3, with “rocked at room temperature. Subsequent permeabilization was conducted with incubation in 1% Triton-X (USB) for 10 min with rocking” for “rocked”

[10] = set-up: method as in PMID 29317180; conditions: amplification of hippocampal long-term potentiation; cited from earlier work
[11] = set-up: method as in PMID 14980703, PMID 28528183; conditions: U251 cells; cited from earlier work

Row | Structure (SMILES) | concentration reducing JCPyV DNA copy number, fold smaller than cidofovir [1] | highest nontoxic dose ([2]; human, 72 h) | highest nontoxic dose ([3]; human, 120 h) | IC50 [4] | IC50 [5] | inhibition of JCPyV infection by time of addition [6] | inhibition of JCPyV infection by time of addition ([7]; 5 µM) | inhibition of viral spread in established infection [8] | inhibition of viral spread in established infection ([9]; 5 µM added 24 h post-infection) | crossing of the BBB in vivo [10] | highest nontoxic dose ([2]; SVG-A cells) | highest nontoxic dose ([3]; NHA cells) | inhibition of JCPyV infection by time of addition ([7]; 10 µM) | inhibition of viral spread in established infection ([9]; 10 µM added 24 h post-infection) | crossing of the BBB in in vitro models [11]
1 | CCCCCCCCCCCCCCCCOCCCOP(=O)(O)CO[C@H](CO)Cn1ccc(N)nc1=O [Brincidofovir] | 100 × | – | – | – | – | – | – | – | – | – | – | – | – | – | –
2 | O=c1c(O)c(-c2ccc(O)c(O)c2)oc2cc(O)ccc12 [fisetin] | – | 10 µM | 5 µM | 5.76 µM | 3.72 µM | inhibited infection at all time points up to and including 24 h post-infection | maintained their ability to inhibit infection even when administered at 24 h post-infection | inhibit viral spread in SVG-A cells at 3, 6, and 9 days post-infection | significantly reduce JCPyV infection at all time points | found to cross the BBB in vivo | – | – | – | – | –
3 | O=c1c(O)c(-c2cc(O)c(O)c(O)c2)oc2cc(O)cc(O)c12 [myricetin] | – | – | – | 8.07 µM | 4.47 µM | effective only when given 2 h before infection or at the time of infection | – | no significant reduction in viral spread compared to DMSO control | – | – | 10 µM | 10 µM | lost by 2 h post-infection | without effect | –
4 | O=c1c(O)c(-c2ccc(O)c(O)c2)oc2cc(O)cc(O)c12 [quercetin] | – | – | – | 6.04 µM | 2.51 µM | inhibited infection at all time points up to and including 24 h post-infection | maintained their ability to inhibit infection even when administered at 24 h post-infection | inhibit viral spread in SVG-A cells at 3, 6, and 9 days post-infection | significantly reduce JCPyV infection at all time points | – | 10 µM | 5 µM | – | – | up to 65%
